Measured values: patent US10385030B2, “Cationic lipid” (NOF CORPORATION, priority 2015, dated 2019)
“Also recorded” adds a separate entry of the source. Each block holds one molecule with its values, some of them ahead of it.

Experiments:
[1] = Particle size and surface potential of MENDs by dynamic light scattering (Experimental Example 6); assay type: physicochemical
Procedure: Various MENDs were prepared by the ethanol dilution method in [Experimental Example 1] (2), and DOPC was used as a phospholipid. PEG5000-DSG was used as a PEG lipid, and an amount corresponding to 5 mol % of the total lipid was added in Myr-C3M MEND, and an amount corresponding to 10 mol % was added in TS-PZ4C2 MEND.
pDNA solution (1 mg/mL), 100 mM malic acid buffer (pH 4.0), 5 M aqueous sodium chloride solution and sterilized water were mixed, and a solution having a final concentration of 0.1 mg/mL, 20 mM, 40 mM, respectively, was prepared and used as a DNA solution.
A lipid solution in ethanol was prepared by mixing 5 mM cationic lipid (L-PZ4C2, O-PZ4C2), 10 mM cholesterol (Chol), and 10 mM DOPC at desired ratios to achieve 840 nmol total lipid in a 5 mL tube, further adding PEG5000-DSG (1 mM ethanol solution) in an amount corresponding to 5 mol % of the total lipid, and adding ethanol to achieve a total amount of 200 μL (80% ethanol solution) and 20 mM malic acid buffer (pH 4.0). While stirring the lipid solution in a vortex mixer, the above-mentioned DNA solution (200 μL) was quickly added, after which 20 mM malic acid buffer (pH 4.0) (1600 μL) was added, phosphate buffered saline was added, and the mixture was diluted to an ethanol concentration of 8%. Similar operation was repeated three times and phosphate buffered saline was added to an ethanol concentration of 4%. Thereafter, using Amicon Ultra 15 (Millipore), the mixture was concentrated to about 200 μL by ultrafiltration under centrifugation condition (room temperature, 2267 rpm, 30 min). Thereafter, the mixture was diluted with phosphate buffered saline to 15 mL, and concentrated again by centrifugation (2267 rpm, for 30 min) under room temperature conditions. Finally, it was diluted to a desired lipid concentration with phosphate buffered saline.
The particle size and the surface potential were measured by the dynamic light scattering method (Zetasizer Nano).

4T1 tumor = assay: Gene expression activity (gene delivery into tumor) in vivo (Experimental Example 8); set-up: species or system BALB/c mice; conditions: MEND encapsulating pDNA, tail vein, 25 mg DNA, 48 hr; FIG. 6
Procedure: Various MENDs were prepared according to the method described in [Experimental Example 6]. Cancer-carrying mice were produced by subcutaneous administration of a suspension of mouse breast cancer-derived cancer cell line 4T1 cells (1×10^6 cells/mouse) to 6-week-old female BALB/c mice. At 7 days after the subcutaneous transplantation of the cancer cells, the prepared MEND solutions were administered each in an amount corresponding to […] from the tail vein. The mice were euthanized by a cervical spine […] method at 48 hr after the administration, the tumor was isolated and frozen with liquid nitrogen. The tumor was lysed in a Lysis buffer to prepare homogenate. The homogenate was centrifuged at 13,000 rpm, 10 min, 4° C., and the supernatant was collected and used as a measurement sample. The sample solution (20 μL) was mixed with a luciferase substrate (50 μL), and the luciferase activity was measured using Luminescenser-PSN (AB2200 ATTO). In addition, the concentration of the protein in the sample was quantified using a BCA protein assay kit, and the gene expression activity was measured as RLU/mg protein.

[2] = Particle size and surface potential of MENDs by dynamic light scattering (Experimental Example 1); assay type: physicochemical
Procedure: A solution of pDNA encoding luciferase gene and a protamine (manufactured by CALBIOCHEM) solution were diluted with 10 mM HEPES buffer to 0.15 mg/mL and 96.3 μg/mL, respectively. While stirring 0.15 mg/mL pDNA solution (100 μL), 96.3 μg/mL protamine (100 μL) was added dropwise in small portions to prepare an electrostatic complex of protamine and pDNA (N/P ratio=1.0) as a core of the vector.
A lipid solution in ethanol was prepared by mixing 5 mM cationic lipid (Myr-C3M), 5 mM phospholipid (SOPC) and 5 mM cholesterol (Chol) at desired ratios to achieve 330 nmol total lipid in an Eppendorf tube, further adding PEG2000-DSG (1 mM ethanol solution) in an amount corresponding to 3 mol % of the total lipid, and adding ethanol to achieve a total volume of 200 μL. While stirring the lipid solution in a vortex mixer, 200 μL of the nucleic acid electrostatic complex (10 mM HEPES; pH 5.3) prepared in [Experimental Example 1] (1) was quickly added, and thereafter 10 mM HEPES buffer (1.6 mL, adjusted to pH 5.3) was added. Furthermore, 10 mM HEPES buffer (2 mL) adjusted to pH 5.3 was added to dilute the mixture to an ethanol concentration of 5%. The mixture was concentrated to about 50 μL by ultrafiltration using Amicon Ultra 4 (Millipore) under centrifugation conditions (room temperature, 1000 g, 15 min). Thereafter, it was diluted to 4 mL with 100 mM HEPES buffer (adjusted to pH 7.4), and again concentrated by centrifugation (1000 g, 15 min) under room temperature conditions. Thereafter, it was diluted to 4 mL with 10 mM HEPES buffer (pH 7.4), and again concentrated by centrifugation (1000 g, 15 min) under room temperature conditions. Finally, it was diluted with 10 mM HEPES buffer (pH 7.4) to a desired lipid concentration.
pDNA solution (1 mg/mL), 100 mM malic acid buffer (pH 4.0), 5 M aqueous sodium chloride solution and sterilized water were mixed, and a solution having final concentrations of 0.1 mg/mL, 20 mM, 40 mM, respectively, was prepared and used as a DNA solution.
A lipid solution in ethanol was prepared by mixing 5 mM cationic lipid (TS-PZ4C2 or TS-C3M), and 10 mM cholesterol (Chol) at desired ratios to achieve 600 nmol total lipid in a 5 mL tube, further adding PEG2000-DMG (5 mM ethanol solution) in an amount corresponding to 3 mol % of the total lipid, and adding ethanol to achieve a total volume of 200 μL. While stirring the lipid solution in a vortex mixer, the above-mentioned DNA solution (300 μL) was quickly added, after which 20 mM malic acid buffer (pH 4.0, containing 100 mM sodium chloride) (500 μL) was added, and phosphate buffered saline was added to dilute the mixture to the ethanol concentration of 10%. Similar operation was repeated three times and phosphate buffered saline was added to an ethanol concentration of 5%. Thereafter, the mixture was concentrated to about 200 μL by ultrafiltration using Amicon Ultra 15 (Millipore, under centrifugation conditions (room temperature, 2267 rpm, 20 min). Thereafter, it was diluted to 15 ml with phosphate buffered saline, and again concentrated by centrifugation (2267 rpm, 20 min) under conditions of room temperature. Finally, it was diluted with phosphate buffered saline to a desired lipid concentration.
The particle size and the surface potential were measured by the dynamic light scattering method (Zetasizer Nano; Malvern Instruments Ltd.).

[3] = compared to DOTAP, DODAP; known from patent document 1; cited from earlier work
[4] = MEND of O-PZ4C2, cationic lipid:DOPC:Chol = 6:1:3, PEG5000-DSG 5 mol %
[5] = MEND of TS-C3M, cationic lipid:Chol = 7:3, PEG2000-DMG 3 mol %
[6] = MEND of Myr-C3M, cationic lipid:DOPC:Chol = 3:4:3, PEG5000-DSG 5 mol %
[7] = MEND of Myr-C3M, cationic lipid:SOPC:Chol = 3:4:3, PEG2000-DSG 3 mol %
[8] = MEND of TS-PZ4C2, cationic lipid:Chol = 7:3, PEG5000-DSG 10 mol %
[9] = MEND of TS-PZ4C2, cationic lipid:Chol = 7:3, PEG2000-DMG 3 mol %
[10] = MEND of L-PZ4C2, cationic lipid:DOPC:Chol = 6:1:3, PEG5000-DSG 5 mol %

PdI [1, 4]: 0.083 | particle size [1, 4]: 115.2 nm | zeta potential [1, 4]: −0.294 mV
SMILES: CCCCCCCC/C=C\CCCCCCCC(=O)OCCN1CCN(CCSSCCN2CCN(CCOC(=O)CCCCCCC/C=C\CCCCCCCC)CC2)CC1 [O-PZ4C2]
gene delivery expression activity to tumor (luciferase activity, RLU/mg protein) (4T1 tumor): higher gene delivery expression activity to tumor than the lipid membrane structures using the cationic lipids of Comparative Example 1

PdI [1, 10]: 0.094 | particle size [1, 10]: 108.7 nm | zeta potential [1, 10]: 0.144 mV
SMILES: CCCCC/C=C\C/C=C\CCCCCCCC(=O)OCCN1CCN(CCSSCCN2CCN(CCOC(=O)CCCCCCC/C=C\C/C=C\CCCCC)CC2)CC1 [L-PZ4C2]
gene delivery expression activity to tumor (luciferase activity, RLU/mg protein) (4T1 tumor): higher gene delivery expression activity to tumor than the lipid membrane structures using the cationic lipids of Comparative Example 1

The next lines start with the molecule.

SMILES: Cc1c(C)c2c(c(C)c1OC(=O)CCC(=O)OCCCN(C)CCSSCCN(C)CCCOC(=O)CCC(=O)Oc1c(C)c(C)c3c(c1C)CCC(C)(CCCC(C)CCCC(C)CCCC(C)C)O3)CCC(C)(CCCC(C)CCCC(C)CCCC(C)C)O2 (stereo not shown) [TS-C3M]
PdI [2, 5]: 0.08 | particle size [2, 5]: 141.3 nm | zeta potential [2, 5]: −5.4 mV | nucleic acid delivery efficiency [3]: high nucleic acid delivery efficiency as compared to cationic lipids such as DOTAP, DODAP

SMILES: CCCCCCCCCCCCCC(=O)OCCCN(C)CCSSCCN(C)CCCOC(=O)CCCCCCCCCCCCC [Myr-C3M]
PdI [1, 6]: 0.134 | particle size [1, 6]: 113.9 nm | zeta potential [1, 6]: −0.135 mV | PdI [2, 7]: 0.188 | particle size [2, 7]: 128.3 nm | zeta potential [2, 7]: 1.88 mV | nucleic acid delivery efficiency [3]: high nucleic acid delivery efficiency as compared to cationic lipids such as DOTAP, DODAP; also recorded: higher nucleic acid delivery efficiency as compared to conventional cationic lipids such as DOTAP, DODAP

SMILES: Cc1c(C)c2c(c(C)c1OC(=O)CCC(=O)OCCN1CCN(CCSSCCN3CCN(CCOC(=O)CCC(=O)Oc4c(C)c(C)c5c(c4C)CCC(C)(CCCC(C)CCCC(C)CCCC(C)C)O5)CC3)CC1)CCC(C)(CCCC(C)CCCC(C)CCCC(C)C)O2 (stereo not shown) [TS-PZ4C2]
PdI [1, 8]: 0.121 | particle size [1, 8]: 104.8 nm | zeta potential [1, 8]: −0.897 mV | PdI [2, 9]: 0.041 | particle size [2, 9]: 126.8 nm | zeta potential [2, 9]: −7.38 mV
